# pIC50: −log10 of the molar value.
# Tests used:
# [1] = biological target: T1, Prostaglandin E synthase (Homo sapiens) (UniProt O14684); assay: (§1) Inhibition of mPGES1 in human whole blood assessed as reduction in LPS-induced PGE2 production preincubated for 30 mins followed by LPS addition measured after 20 to 24 hrs by LC-MS analysis
# T1 sequence (whole entry): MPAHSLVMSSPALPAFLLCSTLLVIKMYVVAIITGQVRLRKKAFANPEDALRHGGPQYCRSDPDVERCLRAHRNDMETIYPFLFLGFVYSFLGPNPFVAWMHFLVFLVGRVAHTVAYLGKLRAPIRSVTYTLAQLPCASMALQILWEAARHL
# Prostaglandin E synthase [2] = biological target: T2, Prostaglandin E synthase (Homo sapiens, UniProt O14684); assay: as §1
# T2 sequence (O14684 whole entry): T1 sequence (whole entry)
# Prostaglandin E synthase [3] = biological target: T2, Prostaglandin E synthase; assay: Inhibition of human mPGES1 expressed in HEK293 microsomes assessed as reduction in PGE2 production using PGH2 as substrate after 2.5 mins by LC-MS analysis
# CYP2C9 = CYP2C9 (Homo sapiens, UniProt P11712); assay: Inhibition of CYP2C9 (unknown origin) in microsomes at 10 uM relative to control; type: ADME
# Chain of CYP2C9 (P11712 whole entry): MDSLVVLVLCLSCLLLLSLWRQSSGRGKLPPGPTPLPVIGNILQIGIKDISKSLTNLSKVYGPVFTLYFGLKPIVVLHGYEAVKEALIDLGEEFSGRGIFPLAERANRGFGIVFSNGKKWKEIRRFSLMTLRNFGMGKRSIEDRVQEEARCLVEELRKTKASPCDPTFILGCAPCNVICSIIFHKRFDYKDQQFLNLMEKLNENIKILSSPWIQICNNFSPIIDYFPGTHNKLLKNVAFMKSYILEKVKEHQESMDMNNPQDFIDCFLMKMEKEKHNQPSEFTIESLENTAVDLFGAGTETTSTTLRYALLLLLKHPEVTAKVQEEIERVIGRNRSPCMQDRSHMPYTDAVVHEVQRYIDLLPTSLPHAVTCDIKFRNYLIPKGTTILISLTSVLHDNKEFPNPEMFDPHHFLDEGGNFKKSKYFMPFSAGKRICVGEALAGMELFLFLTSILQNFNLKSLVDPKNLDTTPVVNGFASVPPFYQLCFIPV
# [4] = Clearance in rat at 1 mg/kg, iv; type: ADME, organism-based; conditions: in vivo
# [5] = biological target: T3, Prostaglandin G/H synthase 2 (Homo sapiens, UniProt P35354); assay: Inhibition of COX2 in human A549 cells assessed as reduction in IL-1beta-induced PGI2 production preincubated for 30 mins followed by IL-1beta addition measured after 18 hrs by enzyme immunoassay; type: cell-based; conditions: a549, 18 h
# T3 sequence (P35354 whole entry): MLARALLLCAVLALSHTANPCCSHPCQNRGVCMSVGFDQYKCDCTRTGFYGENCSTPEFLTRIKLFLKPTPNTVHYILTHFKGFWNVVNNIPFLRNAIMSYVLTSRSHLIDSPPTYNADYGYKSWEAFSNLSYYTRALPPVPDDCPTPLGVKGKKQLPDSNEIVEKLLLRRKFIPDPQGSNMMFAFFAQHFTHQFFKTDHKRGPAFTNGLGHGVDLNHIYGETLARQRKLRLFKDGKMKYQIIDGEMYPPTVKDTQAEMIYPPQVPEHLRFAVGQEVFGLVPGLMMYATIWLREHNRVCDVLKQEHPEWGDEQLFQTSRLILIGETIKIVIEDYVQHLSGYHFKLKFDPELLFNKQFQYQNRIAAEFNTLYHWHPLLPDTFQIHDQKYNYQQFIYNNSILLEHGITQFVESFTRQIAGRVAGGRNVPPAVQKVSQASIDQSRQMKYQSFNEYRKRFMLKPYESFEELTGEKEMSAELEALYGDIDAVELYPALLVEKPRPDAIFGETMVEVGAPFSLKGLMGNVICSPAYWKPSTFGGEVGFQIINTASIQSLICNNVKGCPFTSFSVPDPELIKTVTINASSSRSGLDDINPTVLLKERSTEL
# [6] = biological target: T4, Prostaglandin G/H synthase 1 (Homo sapiens, UniProt P23219); assay: Inhibition of COX1 in human whole blood assessed as effect on LPS-induced PGF2alpha level preincubated for 30 mins followed by LPS addition measured after 20 to 24 hrs by LC-MS analysis
# T4 sequence (P23219 whole entry): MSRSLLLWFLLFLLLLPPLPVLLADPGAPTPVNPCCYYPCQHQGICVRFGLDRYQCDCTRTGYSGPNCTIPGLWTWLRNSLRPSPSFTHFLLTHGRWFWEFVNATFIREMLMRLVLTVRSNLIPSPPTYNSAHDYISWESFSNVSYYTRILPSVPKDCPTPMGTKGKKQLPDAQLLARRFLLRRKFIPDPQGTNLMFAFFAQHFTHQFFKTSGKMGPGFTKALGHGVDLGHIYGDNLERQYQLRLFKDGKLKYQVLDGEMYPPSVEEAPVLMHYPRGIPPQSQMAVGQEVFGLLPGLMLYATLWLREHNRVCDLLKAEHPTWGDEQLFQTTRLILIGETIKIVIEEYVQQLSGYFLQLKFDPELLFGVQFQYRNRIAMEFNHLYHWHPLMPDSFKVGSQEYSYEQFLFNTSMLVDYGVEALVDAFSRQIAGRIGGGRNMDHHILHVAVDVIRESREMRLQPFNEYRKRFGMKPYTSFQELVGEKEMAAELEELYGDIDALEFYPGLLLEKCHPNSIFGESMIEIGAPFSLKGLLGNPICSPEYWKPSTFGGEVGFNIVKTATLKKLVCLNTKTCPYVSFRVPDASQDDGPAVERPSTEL
# [7] = biological target: T4, Prostaglandin G/H synthase 1; assay: Inhibition of COX1 in human whole blood assessed as effect on LPS-induced TXB2 level preincubated for 30 mins followed by LPS addition measured after 20 to 24 hrs by LC-MS analysis
# Prostaglandin E synthase [8] = biological target: T2, Prostaglandin E synthase; assay: Inhibition of mPGES1 in human A549 cells assessed as reduction in IL-1beta-induced PGE2 production preincubated for 30 mins followed by IL-1beta addition measured after 18 hrs by enzyme immunoassay; type: cell-based
# Homo sapiens = species on record: Homo sapiens; assay: Selectivity index, ratio of compound effect for inhibition of human mPGES1 expressed in HEK293 microsomes to compound effect for inhibition of human COX2
# [9] = Volume of distribution at steady state in rat at 1 mg/kg, iv; type: ADME, organism-based; conditions: in vivo, read-out: Vdss
# [10] = biological target: Voltage-gated inwardly rectifying potassium channel KCNH2 (Homo sapiens, UniProt Q12809); assay: Inhibition of human ERG expressed in CHO cells at 10 uM by automated patch clamp method; type: cell-based
# Chain of Voltage-gated inwardly rectifying potassium channel KCNH2 (Q12809 whole entry): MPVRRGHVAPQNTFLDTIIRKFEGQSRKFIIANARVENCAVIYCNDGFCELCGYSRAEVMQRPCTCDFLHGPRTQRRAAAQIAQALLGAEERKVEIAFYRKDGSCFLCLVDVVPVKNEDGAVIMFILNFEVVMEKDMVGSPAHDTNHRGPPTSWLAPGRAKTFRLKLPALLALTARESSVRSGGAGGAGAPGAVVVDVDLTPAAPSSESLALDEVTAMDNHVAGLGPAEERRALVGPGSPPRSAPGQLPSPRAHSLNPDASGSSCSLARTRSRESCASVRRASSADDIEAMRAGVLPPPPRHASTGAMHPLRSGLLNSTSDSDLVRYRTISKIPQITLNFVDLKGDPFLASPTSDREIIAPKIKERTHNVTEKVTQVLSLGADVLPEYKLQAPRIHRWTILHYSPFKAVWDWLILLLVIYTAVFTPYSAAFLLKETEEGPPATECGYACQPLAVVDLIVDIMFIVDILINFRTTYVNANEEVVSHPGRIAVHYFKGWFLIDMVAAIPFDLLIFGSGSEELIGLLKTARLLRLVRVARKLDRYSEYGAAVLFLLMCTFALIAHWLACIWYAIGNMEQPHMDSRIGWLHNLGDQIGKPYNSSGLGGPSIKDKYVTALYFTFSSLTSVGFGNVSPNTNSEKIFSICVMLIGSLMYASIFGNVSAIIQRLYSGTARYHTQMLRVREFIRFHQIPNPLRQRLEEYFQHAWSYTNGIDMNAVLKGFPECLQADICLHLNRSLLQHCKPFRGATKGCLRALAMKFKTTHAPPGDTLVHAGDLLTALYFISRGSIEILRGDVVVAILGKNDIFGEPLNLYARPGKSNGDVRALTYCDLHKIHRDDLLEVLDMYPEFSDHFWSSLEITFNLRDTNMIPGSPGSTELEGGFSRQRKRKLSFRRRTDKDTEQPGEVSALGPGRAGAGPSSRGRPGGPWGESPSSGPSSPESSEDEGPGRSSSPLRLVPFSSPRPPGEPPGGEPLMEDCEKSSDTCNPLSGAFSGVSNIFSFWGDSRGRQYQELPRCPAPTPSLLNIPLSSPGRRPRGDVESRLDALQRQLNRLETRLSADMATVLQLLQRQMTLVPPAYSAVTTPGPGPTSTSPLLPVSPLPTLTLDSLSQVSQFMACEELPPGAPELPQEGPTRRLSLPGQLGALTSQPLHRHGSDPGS
# [11] = Volume of distribution at steady state in dog at 1 mg/kg, iv; type: ADME, organism-based, Canis lupus familiaris; conditions: in vivo, read-out: Vdss
# [12] = Oral bioavailability in rat at 5 mg/kg; type: ADME, organism-based; conditions: in vivo
# Canis familiaris = assay: Time at which plasma concentration stays above human whole blood IC80 level in dog at 3 mg/kg, po administered as single dose; set-up: species or system Canis lupus familiaris
# [13] = Selectivity index, ratio of compound effect for inhibition of human mPGES1 expressed in HEK293 microsomes to compound effect for inhibition of ovine COX1
# [14] = Oral bioavailability in dog at 3 mg/kg; conditions: in vivo
# [15] = Cmax in rat at 5 mg/kg, po; type: ADME, organism-based; set-up: dose 5 mg/kg, route oral; conditions: in vivo
# [16] = Clearance in dog at 1 mg/kg, iv; type: ADME, organism-based, Canis lupus familiaris; conditions: in vivo
# [17] = Cmax in dog at 5 mg/kg, po; type: ADME, organism-based, Canis lupus familiaris; set-up: dose 5 mg/kg, route oral; conditions: in vivo
# Rattus norvegicus = assay: Time at which plasma concentration stays above human whole blood IC80 level in rat at 5 mg/kg, po administered as single dose
# [18] = biological target: T4, Prostaglandin G/H synthase 1; assay: Inhibition of COX1 in human whole blood assessed as effect on LPS-induced PGF2alpha level up to 10 uM preincubated for 30 mins followed by LPS addition measured after 20 to 24 hrs by LC-MS analysis
# [19] = biological target: T4, Prostaglandin G/H synthase 1; assay: Inhibition of COX1 in human whole blood assessed as effect on LPS-induced TXB2 level up to 10 uM preincubated for 30 mins followed by LPS addition measured after 20 to 24 hrs by LC-MS analysis
# [20] = biological target: T3, Prostaglandin G/H synthase 2; assay: Inhibition of COX2 in human A549 cells assessed as reduction in IL-1beta-induced PGI2 production up to 10 uM preincubated for 30 mins followed by IL-1beta addition measured after 18 hrs by enzyme immunoassay; type: cell-based; conditions: a549, 18 h
# [21] = biological target: T3, Prostaglandin G/H synthase 2; assay: Inhibition of human COX2 assessed as reduction in PGF2alpha production at 10 uM using arachidonic acid as substrate by colorimetric method
# [22] = biological target: T5, Prostaglandin G/H synthase 1 (Ovis aries, UniProt P05979); assay: Inhibition of ovine COX1 assessed as reduction in PGF2alpha production at 10 uM using arachidonic acid as substrate by colorimetric method; conditions: sheep
# T5 sequence (P05979 whole entry): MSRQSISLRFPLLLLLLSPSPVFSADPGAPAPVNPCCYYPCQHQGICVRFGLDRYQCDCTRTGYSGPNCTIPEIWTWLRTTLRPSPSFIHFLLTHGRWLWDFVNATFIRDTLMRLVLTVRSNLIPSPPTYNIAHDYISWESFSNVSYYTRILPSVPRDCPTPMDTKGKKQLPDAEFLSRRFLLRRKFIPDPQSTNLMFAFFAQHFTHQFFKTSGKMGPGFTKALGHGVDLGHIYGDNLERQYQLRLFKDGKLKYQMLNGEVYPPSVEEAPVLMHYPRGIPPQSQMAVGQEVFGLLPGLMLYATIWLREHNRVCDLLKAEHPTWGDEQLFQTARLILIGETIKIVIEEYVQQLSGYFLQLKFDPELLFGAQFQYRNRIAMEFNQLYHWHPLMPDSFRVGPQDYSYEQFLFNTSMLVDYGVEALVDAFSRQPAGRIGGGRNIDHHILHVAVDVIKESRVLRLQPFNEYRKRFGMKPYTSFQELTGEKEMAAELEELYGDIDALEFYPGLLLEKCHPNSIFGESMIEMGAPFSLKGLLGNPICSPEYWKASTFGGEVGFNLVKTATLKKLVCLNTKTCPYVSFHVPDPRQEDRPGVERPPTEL
SMILES,IC80 [1],pIC50 (Prostaglandin E synthase [2]),pIC50 (Prostaglandin E synthase [3]),inhibition at 10 µM (CYP2C9),clearance [4],also measured
O=C(O)c1ccc(Cl)cc1OC[C@@H]1CCC[C@@H]1NC(=O)C1CCN(c2ccc(C(F)(F)F)cc2)CC1,25 nM,8.10,8.70,39%,57 mL/min/kg,
O=C(O)c1cccnc1CC[C@@H]1CCC[C@@H]1NC(=O)C1CCN(c2ccc(C(F)(F)F)cc2)CC1,146 nM,7.68,8.22,,38 mL/min/kg,
O=C(O)c1ccc(Cl)cc1NC[C@@H]1CCC[C@@H]1NC(=O)C1CCN(c2ccccc2)CC1,1370 nM,7.09,8.70,46%,81 mL/min/kg,inhibition (INH) [5]: Not Active; inhibition (INH) [6]: Not Active; inhibition (INH) [7]: Not Active; pIC50 (Prostaglandin E synthase [8]): 7.68
O=C(O)c1ccccc1CC[C@@H]1CCC[C@@H]1NC(=O)C1CCN(c2ccc(C(F)(F)F)cn2)CC1,267 nM,7.47,8.70,22%,6 mL/min/kg,
Cc1cccc2ccc(N3CCC(C(=O)N[C@H]4CCC[C@H]4CCc4ccccc4C(=O)O)CC3)nc12,24 nM,8.22,9.00,14%,31 mL/min/kg,Selectivity Index (Homo sapiens): > 10000; Vd [9]: 4.8 L/kg; inhibition (INH) [10]: Not Active; Vd [11]: 1.2 L/kg; bioavailability [12]: 52%; Time (Canis familiaris): 24 h; Selectivity Index [13]: > 10000; bioavailability [14]: 68%; Cmax [15]: 530 nM; clearance [16]: 6.5 mL/min/kg; Cmax [17]: 4000 nM; Time (Rattus norvegicus): >12 h; inhibition (INH) [18]: Not Active; inhibition (INH) [19]: Not Active; inhibition (INH) [20]: Not Active; inhibition (INH) [21]: Not Active; inhibition (INH) [22]: Not Active
O=C(O)c1ccccc1CC[C@@H]1CCC[C@@H]1NC(=O)C1CCN(c2ccc(OC(F)(F)F)cc2)CC1,43 nM,8.00,9.00,32%,17 mL/min/kg,
CC(C)(C)C(=O)N[C@H]1CCC[C@H]1CNc1cc(Cl)ccc1C(=O)O,,5.05,7.37,,,

# Continued, in another order:
IC80 [1],pIC50 (Prostaglandin E synthase [2]),pIC50 (Prostaglandin E synthase [3]),inhibition at 10 µM (CYP2C9),clearance [4],SMILES,also measured
8 nM,8.52,8.40,71%,40 mL/min/kg,O=C(O)c1ccc(Cl)cc1NC[C@@H]1CCC[C@@H]1NC(=O)C1CCN(c2ccc(C(F)(F)F)cc2)CC1,inhibition (INH) [5]: Not Active; inhibition (INH) [6]: Not Active; inhibition (INH) [7]: Not Active; pIC50 (Prostaglandin E synthase [8]): 8.46
10 nM,8.52,9.00,56%,9 mL/min/kg,Cc1ccc(C(=O)O)c(CC[C@@H]2CCC[C@@H]2NC(=O)C2CCN(c3ccc(C(F)(F)F)cc3)CC2)c1,
40 nM,8.30,8.70,5%,5 mL/min/kg,O=C(O)c1ccccc1CC[C@@H]1CCC[C@@H]1NC(=O)C1CCN(c2ccc(C(F)(F)F)cc2)CC1,
41 nM,8.22,9.00,40%,12 mL/min/kg,O=C(O)c1ccc(F)cc1CC[C@@H]1CCC[C@@H]1NC(=O)C1CCN(c2ccc(C(F)(F)F)cc2)CC1,
5 nM,9.00,9.00,51%,16 mL/min/kg,O=C(O)c1ccc(Cl)cc1CC[C@@H]1CCC[C@@H]1NC(=O)C1CCN(c2ccc(C(F)(F)F)cc2)CC1,
